Experimental data: patent publication USRE30241E, “Esters of 3-(hydroxy or hydroxymethyl)-4-hydroxyphenyl aminomethyl ketones” (Sterling Drug Inc., priority 1970, dated 1980)
Like-named read-outs stand apart in the source and are kept apart here.

Experiments:
[1] = test system: guinea pig bronchioles constricted by carbachol; experiment: Bronchodilator Test Method II, in vitro perfused guinea pig lung
Method: In this method bronchodilator activity in vitro was determined by testing the effect of graded doses of the test compounds on guinea pig bronchioles constricted by carbachol, using the technique reported by Sollman and von Oettingen, Proc. Soc, Exp. Biol. Med., 25,692 (1928) as modified by Tainter, Pedden, and James, J. Pharm. Exp. Ther., 51, 371 (1934) and by Luduena, von Euler, Tullar, and Lands, Arch. intern. Pharmacol., III, 392 (1957).

[2] = test system: carbachol- or histamine-induced bronchoconstriction; experiment: Bronchodilator Test Method I, anesthetized dog, intravenous activity; assay type: in vivo; details: Canis lupus familiaris, read-out: Bronchodilatation; for inhibition in vivo at 0.008 mg/kg: 8 mcg/kg i.v.; for inhibition in vivo at 0.032 mg/kg: 32 mcg/kg i.v.; for inhibition in vivo at 0.128 mg/kg: 128 mcg/kg i.v.
Outline: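 Pentobarbital-anesthetized (30 mg/kg i.v.), open-chest, artificially ventilated dogs were given i.v. carbachol (4-6 µg/kg) or histamine diphosphate (35-45 µg/kg). Test compound was given i.v. mixed with, after, or 1-10 min before the constrictor.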

heart rate = experiment: Cardiovascular studies: effect on the heart rate in the anesthetized dog; assay type: in vivo
Method: (§1) The effect of a rapid intravenous injection on the heart rate the heart rate was conducted in anesthetized dogs under normal respiration. A few open-chest dogs were also tested. Increase in heart rate was measured by using an electrocardiograph attached to the dog. Readings were taken every 0.5-1 minute for the first 10 minutes and every 2-5 minutes thereafter until recovery. In some cases, several doses and more than one compound were tested alternately in the same dog. The blood pressure effect was simultaneously recorded.

[3] = test system: carbachol- or histamine-induced bronchoconstriction; experiment: Bronchodilator Test Method I, anesthetized dog, intraduodenal activity; assay type: in vivo; details: Canis lupus familiaris, read-out: Bronchodilation; for inhibition in vivo at 0.032 mg/kg: 32 mcg/kg (salt) intraduodenal; for inhibition in vivo at 0.128 mg/kg: 128 mcg/kg (salt) intraduodenal; for inhibition in vivo at 0.03 mg/kg: 30 mcg/kg (salt) intraduodenal; for inhibition in vivo at 0.12 mg/kg: 120 mcg/kg (salt) intraduodenal
Outline: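 Pentobarbital-anesthetized (30 mg/kg i.v.) open-chest dogs of 9-18 kg, artificially ventilated; airway pressure recorded via tracheal cannula transducer. Test solution injected intraduodenally; from 5 min, i.v. carbachol (4-6 μg/kg) or histamine diphosphate (35-45 μg/kg) challenges every 30-60 min gauged degree and duration of bronchodilation.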

diastolic blood pressure = experiment: Effect on diastolic blood pressure in the anesthetized dog; assay type: in vivo
Method: as §1

COc1ccc(C(=O)Oc2ccc(C(O)CNC(C)(C)C)cc2COC(C)=O)cc1 (stereo not drawn) [Example 151, 3-(acetoxymethyl)-4-(p-anisoyloxy)-alpha-(tert-butylaminomethyl)benzyl alcohol]
ED50 ([1]; carbachol (Doryl) 1:5 million): 5.1 µg (base) | Duration, Mean ([1]; dose 10 mcg (base)): 67.3 ± 33.7 min | inhibition in vivo at 0.008 mg/kg ([2]; 5 min, 5 min): 43% | inhibition in vivo at 0.032 mg/kg ([2]; 5 min, 5 min): 54% | inhibition in vivo at 0.128 mg/kg ([2]; 5 min, 5 min): 85% | inhibition in vivo at 0.008 mg/kg ([2]; 0.5 h, 30 min): 33% | inhibition in vivo at 0.032 mg/kg ([2]; 0.5 h, 30 min): 46% | inhibition in vivo at 0.128 mg/kg ([2]; 0.5 h, 30 min): 81% | inhibition in vivo at 0.008 mg/kg ([2]; 1 h, 60 min): 50% | inhibition in vivo at 0.032 mg/kg ([2]; 1 h, 60 min): 41% | inhibition in vivo at 0.128 mg/kg ([2]; 1 h, 60 min): 81% | inhibition in vivo at 0.008 mg/kg ([2]; 2 h, 120 min): 43% | inhibition in vivo at 0.032 mg/kg ([2]; 2 h, 120 min): 54% | inhibition in vivo at 0.128 mg/kg ([2]; 2 h, 120 min): 73% | inhibition in vivo at 0.008 mg/kg ([2]; 3 h, 180 min): 30% | inhibition in vivo at 0.032 mg/kg ([2]; 3 h, 180 min): 21% | inhibition in vivo at 0.128 mg/kg ([2]; 3 h, 180 min): 69% | inhibition in vivo at 0.032 mg/kg ([2]; 4 h, 240 min): 18% | inhibition in vivo at 0.128 mg/kg ([2]; 4 h, 240 min): 64% | inhibition in vivo at 0.008 mg/kg ([2]; 4.5 h, 270 min): 20% | inhibition in vivo at 0.128 mg/kg ([2]; 4.5 h, 270 min): 52% | Mean Maximal Increase in the Heart Rate (heart rate; 32 mcg/kg (salt) i.v.): 18 Beats/Minute | Mean Maximal Increase in the Heart Rate (heart rate; 128 mcg/kg (salt) i.v.): 24 Beats/Minute | inhibition in vivo at 0.032 mg/kg ([3]; 5 min, 5 min): 24% | inhibition in vivo at 0.128 mg/kg ([3]; 5 min, 5 min): 54% | inhibition in vivo at 0.032 mg/kg ([3]; 0.5 h, 30 min): 40% | inhibition in vivo at 0.128 mg/kg ([3]; 0.5 h, 30 min): 63% | inhibition in vivo at 0.032 mg/kg ([3]; 1 h, 60 min): 36% | inhibition in vivo at 0.128 mg/kg ([3]; 1 h, 60 min): 66% | inhibition in vivo at 0.032 mg/kg ([3]; 2 h, 120 min): 36% | inhibition in vivo at 0.128 mg/kg ([3]; 2 h, 120 min): 66% | inhibition in vivo at 0.032 mg/kg ([3]; 3 h, 180 min): 28% | inhibition in vivo at 0.128 mg/kg ([3]; 3 h, 180 min): 66% | inhibition in vivo at 0.032 mg/kg ([3]; 5 h, 300 min): 20% | inhibition in vivo at 0.128 mg/kg ([3]; 5 h, 300 min): 43% | Mean Decrease in Diastolic Blood Pressure (diastolic blood pressure; 32 meg/kg (salt) i.v.): 10% | Mean Decrease in Diastolic Blood Pressure (diastolic blood pressure; 128 meg/kg (salt) i.v.): 10%

CC(C)NCC(O)c1ccc(O)c(O)c1 (stereo not drawn) [Ref. Cpd. II, 3,4-Dihydroxy-alpha-(isopropylaminomethyl)benzyl alcohol, reference compound]
Duration, Mean ([1]; dose 0.75 mcg (base)): 5 min | inhibition in vivo at 0.0003 mg/kg ([2]; 1 min, 0.3 mcg/kg i.v., 1-2 min): 23% | inhibition in vivo at 0.0006 mg/kg ([2]; 1 min, 0.6 mcg/kg i.v., 1-2 min): 35% | inhibition in vivo at 0.0012 mg/kg ([2]; 1 min, 1.2 mcg/kg i.v., 1-2 min): 55% | Mean Maximal Increase in the Heart Rate (heart rate; 0.15 mcg/kg (salt) i.v.): 26% | Mean Maximal Increase in the Heart Rate (heart rate; 0.3 mcg/kg (salt) i.v.): 35% | Mean Maximal Increase in the Heart Rate (heart rate; 0.6 mcg/kg (salt) i.v.): 50% | inhibition in vivo at 0.03 mg/kg ([3]; 10 min, 10 min): 9% | inhibition in vivo at 0.12 mg/kg ([3]; 10 min, 10 min): 28% | inhibition in vivo at 0.03 mg/kg ([3]; 0.5 h, 30 min): 5% | inhibition in vivo at 0.12 mg/kg ([3]; 0.5 h, 30 min): 5% | inhibition in vivo at 0.03 mg/kg ([3]; 1 h, 60 min): 0% | inhibition in vivo at 0.12 mg/kg ([3]; 1 h, 60 min): 19% | Mean Decrease in Diastolic Blood Pressure (diastolic blood pressure; 0.15 meg/kg (salt) i.v.): 12% | Mean Decrease in Diastolic Blood Pressure (diastolic blood pressure; 0.3 meg/kg (salt) i.v.): 32% | Mean Decrease in Diastolic Blood Pressure (diastolic blood pressure; 0.6 meg/kg (salt) i.v.): 40%
